These results are taken from US8574563B2 (Bristol-Myers Squibb Company, priority 2006, dated 2013).

The structures appear in SMILES notation.

In the assay the test system is HCV 1b-377-neo replicon cells. As to the kind of experiment: HCV replicon assay, HCV 1b-377-neo replicon cells (1b FRET). The format is cell-based, Hepatitis C virus genotype 1b. The following applies: Hepatitis C virus, HCV 1b-377-neo replicon cells; HCV 1b genotype; read-out: EC50 range against HCV 1b (Table 2, Range). The essentials:
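Compounds were tested in genotype 1b subgenomic replicon cells carrying a neomycin marker, alongside a matched replicon line with an NS5A Y2065H substitution that confers resistance to a reference NS5A inhibitor.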
A general note: A replicon is a self-replicating genome or part of one, used to study replication in cells.

With `COC(=O)N[C@@H](C(=O)N1CCC[C@H]1c1ncc(-c2ccc(-c3ccc(-c4cnc([C@@H]5CCCN5C(=O)Cc5ccccc5)[nH]4)cc3)cc2)[nH]1)c1ccccc1` [Example 28, methyl ((1R)-2-oxo-1-phenyl-2-((2S)-2-(5-(4′-(2-((2S)-1-(phenylacetyl)-2-pyrrolidinyl)-1H-imidazol-5-yl)-4-biphenylyl)-1H-imidazol-2-yl)-1-pyrrolidinyl)ethyl)carbamate], the EC50 – broadly, the concentration that produces a half-maximal response – lay within 1 to 99 nM.

As to `CN(C)[C@@H](C(=O)N1CCC[C@H]1c1ncc(-c2ccc(-c3ccc(-c4cnc([C@@H]5CCCN5C(=O)[C@@H](c5ccccc5)N5CCCCC5)[nH]4)cc3)cc2)[nH]1)c1ccccc1` [Example 28-1, (1R)—N,N-dimethyl-2-oxo-1-phenyl-2-((2S)-2-(5-(4′-(2-((2S)-1-((2R)-2-phenyl-2-(1-piperidinyl)acetyl)-2-pyrrolidinyl)-1H-imidazol-5-yl)-4-biphenylyl)-1H-imidazol-2-yl)-1-pyrrolidinyl)ethanamine], the EC50 fell in the range of 0.001 to 0.999 nM.

`O=C([C@H]1CCCO1)N1CCC[C@H]1c1ncc(-c2ccc(-c3ccc(-c4cnc([C@@H]5CCCN5C(=O)[C@@H](c5ccccc5)N5CCCCC5)[nH]4)cc3)cc2)[nH]1` [Example 28-2, 1-((1R)-2-oxo-1-phenyl-2-((2S)-2-(5-(4′-(2-((2S)-1-((2R)-tetrahydro-2-furanylcarbonyl)-2-pyrrolidinyl)-1H-imidazol-5-yl)-4-biphenylyl)-1H-imidazol-2-yl)-1-pyrrolidinyl)ethyl)piperidine]: the concentration giving a half-maximal response (EC50) was in the range of 0.001 to 0.999 nM.

On to `COC(=O)N[C@@H](C(=O)N1CCC[C@H]1c1ncc(-c2ccc(-c3ccc(-c4cnc([C@@H]5CCCN5C(=O)[C@@H](c5ccccc5)N5CCCCC5)[nH]4)cc3)cc2)[nH]1)c1ccccc1Cl` [Example 28-3, methyl ((1R)-1-(2-chlorophenyl)-2-oxo-2-((2S)-2-(5-(4′-(2-((2S)-1-((2R)-2-phenyl-2-(1-piperidinyl)acetyl)-2-pyrrolidinyl)-1H-imidazol-5-yl)-4-biphenylyl)-1H-imidazol-2-yl)-1-pyrrolidinyl)ethyl)carbamate], for which the EC50 is 0.001 to 0.999 nM.

In the case of `CN(C)[C@@H](C(=O)N1CCC[C@H]1c1ncc(-c2ccc(-c3ccc(-c4cnc([C@@H]5CCCN5C(=O)[C@@H](c5ccccc5)N5CCCCC5)[nH]4)cc3)cc2)[nH]1)c1ccccc1Cl` [Example 28-4, (1R)-1-(2-chlorophenyl)-N,N-dimethyl-2-oxo-2-((2S)-2-(5-(4′-(2-((2S)-1-((2R)-2-phenyl-2-(1-piperidinyl)acetyl)-2-pyrrolidinyl)-1H-imidazol-5-yl)-4-biphenylyl)-1H-imidazol-2-yl)-1-pyrrolidinyl)ethanamine], the EC50 lay within 0.001 to 0.999 nM.

Turning to `CN(C)[C@@H](C(=O)N1CCC[C@H]1c1ncc(-c2ccc(-c3ccc(-c4cnc([C@@H]5CCCN5C(=O)[C@@H](c5ccccc5)N5CCCCC5)[nH]4)cc3)cc2)[nH]1)c1ccccc1F` [Example 28-5, (1R)-1-(2-fluorophenyl)-N,N-dimethyl-2-oxo-2-((2S)-2-(5-(4′-(2-((2S)-1-((2R)-2-phenyl-2-(1-piperidinyl)acetyl)-2-pyrrolidinyl)-1H-imidazol-5-yl)-4-biphenylyl)-1H-imidazol-2-yl)-1-pyrrolidinyl)ethanamine], the EC50 was in the range of 0.001 to 0.999 nM.

For the compound `COC(=O)N[C@@H](C(=O)N1CCC[C@H]1c1ncc(-c2ccc(-c3ccc(-c4cnc([C@@H]5CCCN5C(=O)N5CCN(C)CC5)[nH]4)cc3)cc2)[nH]1)c1ccccc1` [Example 29, methyl ((1R)-2-((2S)-2-(5-(4′-(2-((2S)-1-((4-methyl-1-piperazinyl)carbonyl)-2-pyrrolidinyl)-1H-imidazol-5-yl)-4-biphenylyl)-1H-imidazol-2-yl)-1-pyrrolidinyl)-2-oxo-1-phenylethyl)carbamate], the EC50 lay within 0.001 to 0.999 nM.

Consider `COC(=O)N[C@@H](C(=O)N1CCC[C@H]1c1ncc(-c2ccc(-c3ccc(-c4cnc([C@@H]5CCCN5C(=O)CN)[nH]4)cc3)cc2)[nH]1)c1ccccc1` [Example 30, methyl ((1R)-2-((2S)-2-(5-(4′-(2-((2S)-1-glycyl-2-pyrrolidinyl)-1H-imidazol-5-yl)-4-biphenylyl)-1H-imidazol-2-yl)-1-pyrrolidinyl)-2-oxo-1-phenylethyl)carbamate], for which the EC50 was 1 to 99 nM.

For `COC(=O)N[C@@H](C(=O)N1CCC[C@H]1c1ncc(-c2ccc(-c3ccc(-c4cnc([C@@H]5CCCN5C(C)=O)[nH]4)cc3)cc2)[nH]1)c1ccccc1` [Example 31, methyl ((1R)-2-((2S)-2-(5-(4′-(2-((2S)-1-acetyl-2-pyrrolidinyl)-1H-imidazol-5-yl)-4-biphenylyl)-1H-imidazol-2-yl)-1-pyrrolidinyl)-2-oxo-1-phenylethyl)carbamate], the EC50 was in the range of 0.001 to 0.999 nM.

Regarding `CCC(=O)N1CCC[C@H]1c1ncc(-c2ccc(-c3ccc(-c4cnc([C@@H]5CCCN5C(=O)[C@H](NC(=O)OC)c5ccccc5)[nH]4)cc3)cc2)[nH]1` [Example 32, methyl ((1R)-2-oxo-1-phenyl-2-((2S)-2-(5-(4′-(2-((2S)-1-propionyl-2-pyrrolidinyl)-1H-imidazol-5-yl)-4-biphenylyl)-1H-imidazol-2-yl)-1-pyrrolidinyl)ethyl)carbamate], the EC50 fell in the range of 1 to 99 nM.

As to `COC(=O)N[C@@H](C(=O)N1CCC[C@H]1c1ncc(-c2ccc(-c3ccc(-c4cnc([C@@H]5CCCN5C(=O)C5CC5)[nH]4)cc3)cc2)[nH]1)c1ccccc1` [Example 33, methyl ((1R)-2-((2S)-2-(5-(4′-(2-((2S)-1-(cyclopropylcarbonyl)-2-pyrrolidinyl)-1H-imidazol-5-yl)-4-biphenylyl)-1H-imidazol-2-yl)-1-pyrrolidinyl)-2-oxo-1-phenylethyl)carbamate], the EC50 fell in the range of 0.001 to 0.999 nM.

Regarding `COC(=O)N[C@@H](C(=O)N1CCC[C@H]1c1ncc(-c2ccc(-c3ccc(-c4cnc([C@@H]5CCCN5C(=O)CC5CC5)[nH]4)cc3)cc2)[nH]1)c1ccccc1` [Example 34, methyl ((1R)-2-((2S)-2-(5-(4′-(2-((2S)-1-(cyclopropylacetyl)-2-pyrrolidinyl)-1H-imidazol-5-yl)-4-biphenylyl)-1H-imidazol-2-yl)-1-pyrrolidinyl)-2-oxo-1-phenylethyl)carbamate], the EC50 was in the range of 0.001 to 0.999 nM.

Consider `COC(=O)N[C@@H](C(=O)N1CCC[C@H]1c1ncc(-c2ccc(-c3ccc(-c4cnc([C@@H]5CCCN5C(=O)[C@@H](C)O)[nH]4)cc3)cc2)[nH]1)c1ccccc1` [Example 35, methyl ((1R)-2-((2S)-2-(5-(4′-(2-((2S)-1-((2R)-2-hydroxypropanoyl)-2-pyrrolidinyl)-1H-imidazol-5-yl)-4-biphenylyl)-1H-imidazol-2-yl)-1-pyrrolidinyl)-2-oxo-1-phenylethyl)carbamate], for which the EC50 lay in the range of 0.001 to 0.999 nM.

For the compound `COC(=O)N[C@@H](C(=O)N1CCC[C@H]1c1ncc(-c2ccc(-c3ccc(-c4cnc([C@@H]5CCCN5C(=O)[C@H]5CCCO5)[nH]4)cc3)cc2)[nH]1)c1ccccc1` [Example 36, methyl ((1R)-2-oxo-1-phenyl-2-((2S)-2-(5-(4′-(2-((2S)-1-((2R)-tetrahydro-2-furanylcarbonyl)-2-pyrrolidinyl)-1H-imidazol-5-yl)-4-biphenylyl)-1H-imidazol-2-yl)-1-pyrrolidinyl)ethyl)carbamate], the EC50 is 0.001 to 0.999 nM.

In the case of `COC(=O)N[C@@H](C(=O)N1CCC[C@H]1c1ncc(-c2ccc(-c3ccc(-c4cnc([C@@H]5CCCN5C(=O)CN(C)C)[nH]4)cc3)cc2)[nH]1)c1ccccc1` [Example 37, methyl ((1R)-2-((2S)-2-(5-(4′-(2-((2S)-1-(N,N-dimethylglycyl)-2-pyrrolidinyl)-1H-imidazol-5-yl)-4-biphenylyl)-1H-imidazol-2-yl)-1-pyrrolidinyl)-2-oxo-1-phenylethyl)carbamate], the EC50 is 0.001 to 0.999 nM.

On to `COC(=O)N[C@@H](C(=O)N1CCC[C@H]1c1ncc(-c2ccc(-c3ccc(-c4cnc([C@@H]5CCCN5C(=O)[C@H](c5ccccc5)N(C)C)[nH]4)cc3)cc2)[nH]1)c1ccccc1` [Example 38, methyl ((1R)-2-((2S)-2-(5-(4′-(2-((2S)-1-((2S)-2-(dimethylamino)-2-phenylacetyl)-2-pyrrolidinyl)-1H-imidazol-5-yl)-4-biphenylyl)-1H-imidazol-2-yl)-1-pyrrolidinyl)-2-oxo-1-phenylethyl)carbamate], for which the EC50 lay within 0.001 to 0.999 nM.

On to `COC(=O)N[C@@H](C(=O)N1CCC[C@H]1c1ncc(-c2ccc(-c3ccc(-c4cnc([C@@H]5CCCN5C(=O)CN5CCOCC5)[nH]4)cc3)cc2)[nH]1)c1ccccc1` [Example 39, methyl ((1R)-2-((2S)-2-(5-(4′-(2-((2S)-1-(4-morpholinylacetyl)-2-pyrrolidinyl)-1H-imidazol-5-yl)-4-biphenylyl)-1H-imidazol-2-yl)-1-pyrrolidinyl)-2-oxo-1-phenylethyl)carbamate], for which the EC50 was 0.001 to 0.999 nM.

`COC(=O)NCC(=O)N1CCC[C@H]1c1ncc(-c2ccc(-c3ccc(-c4cnc([C@@H]5CCCN5C(=O)[C@H](NC(=O)OC)c5ccccc5)[nH]4)cc3)cc2)[nH]1` [Example 40, methyl (2-((2S)-2-(5-(4′-(2-((2S)-1-((2R)-2-((methoxycarbonyl)amino)-2-phenylacetyl)-2-pyrrolidinyl)-1H-imidazol-5-yl)-4-biphenylyl)-1H-imidazol-2-yl)-1-pyrrolidinyl)-2-oxoethyl)carbamate]: the EC50 lay in the range of 0.001 to 0.999 nM.

In the case of `COC(=O)N[C@@H](C(=O)N1CCC[C@H]1c1ncc(-c2ccc(-c3ccc(-c4cnc([C@@H]5CCCN5C(=O)CNC(C)=O)[nH]4)cc3)cc2)[nH]1)c1ccccc1` [Example 41, methyl ((1R)-2-((2S)-2-(5-(4′-(2-((2S)-1-(N-acetylglycyl)-2-pyrrolidinyl)-1H-imidazol-5-yl)-4-biphenylyl)-1H-imidazol-2-yl)-1-pyrrolidinyl)-2-oxo-1-phenylethyl)carbamate], the EC50 was in the range of 0.001 to 0.999 nM.
